From BindingDB's records for doi:10.1016/0028-3908(94)90059-0 (University of Alberta, 1994)
Values joined by “and” are separate entries in the source; they are usually repeats but may differ in a detail not shown here. Equal values may be shown once.

Assays:
[1] = target: 5-hydroxytryptamine receptor 4 (Cavia porcellus, UniProt O70528)
[2] = target: 5-hydroxytryptamine receptor 5A (Mus musculus, UniProt P30966)
[3] = target: 5-hydroxytryptamine receptor 5B (Rattus norvegicus, UniProt P35365)
[4] = target: 5-hydroxytryptamine receptor 1D (Rattus norvegicus, UniProt P28565)
Chain of 5-hydroxytryptamine receptor 1D (Rattus norvegicus, UniProt P28565) (P28565 whole entry): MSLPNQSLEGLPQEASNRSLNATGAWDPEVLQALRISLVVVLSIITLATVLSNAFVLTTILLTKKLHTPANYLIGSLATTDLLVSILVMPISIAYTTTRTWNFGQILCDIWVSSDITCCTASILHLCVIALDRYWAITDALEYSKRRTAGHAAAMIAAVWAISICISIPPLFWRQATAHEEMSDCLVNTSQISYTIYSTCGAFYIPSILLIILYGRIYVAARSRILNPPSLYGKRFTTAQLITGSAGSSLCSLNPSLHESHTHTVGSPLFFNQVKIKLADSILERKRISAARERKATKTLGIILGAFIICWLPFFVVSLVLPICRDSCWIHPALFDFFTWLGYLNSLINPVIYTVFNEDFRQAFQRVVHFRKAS

[5] = target: 5-hydroxytryptamine receptor 1E (Homo sapiens, UniProt P28566)
Chain of 5-hydroxytryptamine receptor 1E (P28566 whole entry): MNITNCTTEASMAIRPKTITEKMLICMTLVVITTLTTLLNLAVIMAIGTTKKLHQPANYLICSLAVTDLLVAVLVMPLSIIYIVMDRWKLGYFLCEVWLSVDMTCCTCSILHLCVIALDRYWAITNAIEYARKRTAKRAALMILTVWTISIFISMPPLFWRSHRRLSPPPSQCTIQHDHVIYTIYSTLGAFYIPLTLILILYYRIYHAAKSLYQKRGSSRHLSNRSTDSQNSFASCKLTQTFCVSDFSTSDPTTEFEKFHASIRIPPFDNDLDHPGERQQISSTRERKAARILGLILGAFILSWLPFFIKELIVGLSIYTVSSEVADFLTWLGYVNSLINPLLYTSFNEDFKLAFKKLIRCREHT

[6] = target: T1, 5-hydroxytryptamine receptor 1F (Rattus norvegicus, UniProt P30940)
T1 sequence (P30940 whole entry): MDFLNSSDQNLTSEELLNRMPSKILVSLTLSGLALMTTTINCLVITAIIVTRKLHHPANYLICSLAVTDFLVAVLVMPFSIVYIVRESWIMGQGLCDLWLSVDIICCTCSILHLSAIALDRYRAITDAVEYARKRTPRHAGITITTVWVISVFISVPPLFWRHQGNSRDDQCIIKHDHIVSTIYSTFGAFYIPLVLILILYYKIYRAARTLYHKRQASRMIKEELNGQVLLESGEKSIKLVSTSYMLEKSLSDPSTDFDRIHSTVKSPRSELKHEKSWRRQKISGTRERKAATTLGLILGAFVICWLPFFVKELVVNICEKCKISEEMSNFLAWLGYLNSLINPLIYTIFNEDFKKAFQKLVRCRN

[7] = target: T2, 5-hydroxytryptamine receptor 1F (Mus musculus, UniProt Q02284)
T2 sequence (Q02284 whole entry): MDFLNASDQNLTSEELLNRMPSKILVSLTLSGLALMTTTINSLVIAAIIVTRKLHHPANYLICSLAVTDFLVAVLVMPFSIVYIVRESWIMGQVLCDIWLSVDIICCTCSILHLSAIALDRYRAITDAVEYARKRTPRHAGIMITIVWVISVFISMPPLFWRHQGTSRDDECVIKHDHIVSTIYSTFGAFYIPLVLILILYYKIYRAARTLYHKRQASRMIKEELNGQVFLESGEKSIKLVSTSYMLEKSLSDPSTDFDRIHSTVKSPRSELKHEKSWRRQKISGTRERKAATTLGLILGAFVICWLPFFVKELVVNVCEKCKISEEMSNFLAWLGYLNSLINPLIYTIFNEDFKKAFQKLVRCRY

[8] = target: 5-hydroxytryptamine receptor 1D (Canis lupus familiaris, UniProt P11614)
Chain of 5-hydroxytryptamine receptor 1D (Canis lupus familiaris, UniProt P11614) (P11614 whole entry): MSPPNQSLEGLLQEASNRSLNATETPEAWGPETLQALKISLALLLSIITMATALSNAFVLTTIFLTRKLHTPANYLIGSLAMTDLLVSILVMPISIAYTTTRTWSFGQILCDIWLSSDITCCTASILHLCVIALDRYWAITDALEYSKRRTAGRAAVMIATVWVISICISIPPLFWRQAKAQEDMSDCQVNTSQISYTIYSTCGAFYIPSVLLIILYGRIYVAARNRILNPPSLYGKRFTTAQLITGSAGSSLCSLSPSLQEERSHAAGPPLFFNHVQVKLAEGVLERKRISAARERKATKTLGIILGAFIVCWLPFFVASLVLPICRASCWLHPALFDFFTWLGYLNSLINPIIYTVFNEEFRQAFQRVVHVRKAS

[9] = target: 5-hydroxytryptamine receptor 1B (Rattus norvegicus, UniProt P28564)
Chain of 5-hydroxytryptamine receptor 1B (Rattus norvegicus, UniProt P28564) (P28564 whole entry): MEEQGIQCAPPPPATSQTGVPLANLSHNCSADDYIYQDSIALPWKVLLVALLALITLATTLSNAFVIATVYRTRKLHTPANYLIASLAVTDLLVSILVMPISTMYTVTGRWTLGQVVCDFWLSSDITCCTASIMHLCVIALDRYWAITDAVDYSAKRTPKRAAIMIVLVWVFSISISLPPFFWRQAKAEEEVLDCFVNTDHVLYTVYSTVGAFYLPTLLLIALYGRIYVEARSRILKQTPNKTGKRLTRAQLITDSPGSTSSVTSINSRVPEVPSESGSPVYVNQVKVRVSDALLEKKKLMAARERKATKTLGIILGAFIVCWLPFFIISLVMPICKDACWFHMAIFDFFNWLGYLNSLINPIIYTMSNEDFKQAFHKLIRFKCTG

[10] = target: 5-hydroxytryptamine receptor 7 (Mus musculus, UniProt P32304)
Chain of 5-hydroxytryptamine receptor 7 (P32304 whole entry): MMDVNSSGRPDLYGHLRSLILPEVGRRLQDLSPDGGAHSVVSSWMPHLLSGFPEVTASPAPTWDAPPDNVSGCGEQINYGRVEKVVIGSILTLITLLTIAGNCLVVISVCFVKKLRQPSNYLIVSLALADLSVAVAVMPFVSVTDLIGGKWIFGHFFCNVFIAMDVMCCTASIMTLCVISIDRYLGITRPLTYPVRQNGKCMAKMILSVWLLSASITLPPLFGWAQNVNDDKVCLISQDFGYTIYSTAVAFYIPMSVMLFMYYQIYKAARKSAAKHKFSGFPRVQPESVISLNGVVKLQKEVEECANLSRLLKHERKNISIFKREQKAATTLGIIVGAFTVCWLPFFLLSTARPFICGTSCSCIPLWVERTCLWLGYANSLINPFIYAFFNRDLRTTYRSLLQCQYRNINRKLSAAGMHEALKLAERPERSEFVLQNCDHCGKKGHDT

[11] = target: 5-hydroxytryptamine receptor 1B (Mus musculus, UniProt P28334)
Chain of 5-hydroxytryptamine receptor 1B (Mus musculus, UniProt P28334) (P28334 whole entry): as the sequence (P28564 whole entry) above, with T15A, A23T, D33G, D152E, V192M, V270A, E272D, T385A counted along it

[12] = target: 5-hydroxytryptamine receptor 5A (Rattus norvegicus, UniProt P35364)
Chain of 5-hydroxytryptamine receptor 5A (Rattus norvegicus, UniProt P35364) (P35364 whole entry): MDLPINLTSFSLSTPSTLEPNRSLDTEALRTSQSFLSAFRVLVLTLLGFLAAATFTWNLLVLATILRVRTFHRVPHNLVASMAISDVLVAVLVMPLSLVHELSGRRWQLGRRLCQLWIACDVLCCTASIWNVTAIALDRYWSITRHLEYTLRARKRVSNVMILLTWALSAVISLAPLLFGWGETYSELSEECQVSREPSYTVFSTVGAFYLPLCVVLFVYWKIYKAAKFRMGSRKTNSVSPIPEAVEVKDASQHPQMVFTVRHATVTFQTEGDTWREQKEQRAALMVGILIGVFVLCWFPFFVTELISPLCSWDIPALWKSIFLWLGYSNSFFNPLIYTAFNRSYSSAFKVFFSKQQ

[13] = target: 5-hydroxytryptamine receptor 2B (Mus musculus, UniProt Q02152)
Chain of 5-hydroxytryptamine receptor 2B (Mus musculus, UniProt Q02152) (Q02152 whole entry): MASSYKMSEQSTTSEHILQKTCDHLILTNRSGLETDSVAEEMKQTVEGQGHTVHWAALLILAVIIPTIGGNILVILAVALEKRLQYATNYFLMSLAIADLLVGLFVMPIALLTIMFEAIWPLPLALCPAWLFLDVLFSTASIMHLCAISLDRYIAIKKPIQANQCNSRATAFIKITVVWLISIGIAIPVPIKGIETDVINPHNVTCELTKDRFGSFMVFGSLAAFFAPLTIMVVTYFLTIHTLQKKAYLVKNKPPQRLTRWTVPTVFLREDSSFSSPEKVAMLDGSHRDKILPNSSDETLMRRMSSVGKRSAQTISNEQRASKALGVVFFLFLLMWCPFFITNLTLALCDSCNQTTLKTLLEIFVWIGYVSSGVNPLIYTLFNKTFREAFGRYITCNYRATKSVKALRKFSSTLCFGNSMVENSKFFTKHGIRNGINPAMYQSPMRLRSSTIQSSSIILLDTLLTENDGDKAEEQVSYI

[14] = target: T3, 5-hydroxytryptamine receptor 2C (Rattus norvegicus, UniProt P08909)
T3 sequence (P08909 whole entry): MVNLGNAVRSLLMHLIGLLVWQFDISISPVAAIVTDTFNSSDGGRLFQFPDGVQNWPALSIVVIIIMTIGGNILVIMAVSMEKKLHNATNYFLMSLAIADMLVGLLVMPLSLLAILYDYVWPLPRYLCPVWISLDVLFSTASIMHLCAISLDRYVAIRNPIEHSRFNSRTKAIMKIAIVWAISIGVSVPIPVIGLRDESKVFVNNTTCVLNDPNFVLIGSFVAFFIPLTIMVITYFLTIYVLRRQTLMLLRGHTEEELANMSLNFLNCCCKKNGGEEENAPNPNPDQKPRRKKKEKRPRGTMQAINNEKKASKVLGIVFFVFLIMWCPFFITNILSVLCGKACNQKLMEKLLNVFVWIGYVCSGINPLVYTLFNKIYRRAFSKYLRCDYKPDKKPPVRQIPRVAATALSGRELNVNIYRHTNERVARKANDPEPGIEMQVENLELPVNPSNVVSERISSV

[15] = target: 5-hydroxytryptamine receptor 2B (Rattus norvegicus, UniProt P30994)
Chain of 5-hydroxytryptamine receptor 2B (Rattus norvegicus, UniProt P30994) (P30994 whole entry): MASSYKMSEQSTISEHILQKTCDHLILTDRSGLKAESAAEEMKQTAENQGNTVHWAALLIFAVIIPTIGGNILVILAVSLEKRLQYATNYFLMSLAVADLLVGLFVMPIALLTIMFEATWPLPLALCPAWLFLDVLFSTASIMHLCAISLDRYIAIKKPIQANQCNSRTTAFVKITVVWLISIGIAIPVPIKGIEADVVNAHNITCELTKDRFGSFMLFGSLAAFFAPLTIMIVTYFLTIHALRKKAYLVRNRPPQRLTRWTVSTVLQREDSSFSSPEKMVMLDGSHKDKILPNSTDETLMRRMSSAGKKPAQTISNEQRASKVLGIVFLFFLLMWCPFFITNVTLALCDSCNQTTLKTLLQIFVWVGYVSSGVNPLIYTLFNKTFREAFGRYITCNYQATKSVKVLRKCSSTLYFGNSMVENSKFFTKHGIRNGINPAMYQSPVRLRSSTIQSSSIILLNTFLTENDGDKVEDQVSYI

[16] = target: T4, 5-hydroxytryptamine receptor 1F (Homo sapiens, UniProt P30939)
T4 sequence (P30939 whole entry): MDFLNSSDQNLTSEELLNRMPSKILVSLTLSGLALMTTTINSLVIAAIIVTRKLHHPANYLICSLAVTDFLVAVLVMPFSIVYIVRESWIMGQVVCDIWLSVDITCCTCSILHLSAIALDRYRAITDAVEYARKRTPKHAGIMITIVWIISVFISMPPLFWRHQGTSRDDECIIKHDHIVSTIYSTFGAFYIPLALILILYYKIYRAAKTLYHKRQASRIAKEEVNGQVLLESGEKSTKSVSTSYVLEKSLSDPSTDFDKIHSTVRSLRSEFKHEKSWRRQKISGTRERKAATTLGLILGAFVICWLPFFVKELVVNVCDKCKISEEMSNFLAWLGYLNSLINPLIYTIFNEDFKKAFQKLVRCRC

[17] = target: 5-hydroxytryptamine receptor 2A (Rattus norvegicus, UniProt P14842)
[18] = target: T5, 5-hydroxytryptamine receptor 3A (Mus musculus, UniProt P23979)
T5 sequence (P23979 whole entry): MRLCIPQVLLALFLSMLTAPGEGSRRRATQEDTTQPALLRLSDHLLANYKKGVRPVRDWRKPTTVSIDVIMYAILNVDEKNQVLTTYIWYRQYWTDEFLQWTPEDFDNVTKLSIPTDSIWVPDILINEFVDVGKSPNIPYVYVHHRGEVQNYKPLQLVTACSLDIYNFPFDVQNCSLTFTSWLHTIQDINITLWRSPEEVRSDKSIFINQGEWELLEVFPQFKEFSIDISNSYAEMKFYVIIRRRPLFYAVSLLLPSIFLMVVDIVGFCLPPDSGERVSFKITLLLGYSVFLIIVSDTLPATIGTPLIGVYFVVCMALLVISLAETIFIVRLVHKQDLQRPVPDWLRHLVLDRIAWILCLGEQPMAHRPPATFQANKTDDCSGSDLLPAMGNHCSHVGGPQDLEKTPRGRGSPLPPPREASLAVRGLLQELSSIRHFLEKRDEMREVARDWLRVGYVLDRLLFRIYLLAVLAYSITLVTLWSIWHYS

Chain of 5-hydroxytryptamine receptor 5A (Mus musculus, UniProt P30966) (P30966 whole entry): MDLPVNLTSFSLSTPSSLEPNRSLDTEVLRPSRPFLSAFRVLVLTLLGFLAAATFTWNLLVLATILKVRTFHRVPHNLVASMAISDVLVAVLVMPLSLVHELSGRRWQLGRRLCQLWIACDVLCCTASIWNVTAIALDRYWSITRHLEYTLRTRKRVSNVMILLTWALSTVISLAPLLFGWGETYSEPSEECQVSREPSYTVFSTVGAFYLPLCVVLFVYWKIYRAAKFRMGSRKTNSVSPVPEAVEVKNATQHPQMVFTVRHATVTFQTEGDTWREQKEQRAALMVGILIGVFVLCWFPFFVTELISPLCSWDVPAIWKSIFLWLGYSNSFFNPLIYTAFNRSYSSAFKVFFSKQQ
Chain of 5-hydroxytryptamine receptor 4 (O70528 whole entry): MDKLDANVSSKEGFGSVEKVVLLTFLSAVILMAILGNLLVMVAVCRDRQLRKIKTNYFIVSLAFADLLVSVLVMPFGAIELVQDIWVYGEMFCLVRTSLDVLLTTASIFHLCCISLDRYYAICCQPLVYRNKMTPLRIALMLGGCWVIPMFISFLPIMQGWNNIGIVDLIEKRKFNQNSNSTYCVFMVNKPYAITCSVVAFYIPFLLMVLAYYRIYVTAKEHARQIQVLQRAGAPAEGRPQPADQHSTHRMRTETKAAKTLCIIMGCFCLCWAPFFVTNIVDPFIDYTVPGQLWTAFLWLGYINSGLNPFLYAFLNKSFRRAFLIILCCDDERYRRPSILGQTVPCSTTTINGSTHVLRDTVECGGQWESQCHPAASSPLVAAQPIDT
Chain of 5-hydroxytryptamine receptor 5B (P35365 whole entry): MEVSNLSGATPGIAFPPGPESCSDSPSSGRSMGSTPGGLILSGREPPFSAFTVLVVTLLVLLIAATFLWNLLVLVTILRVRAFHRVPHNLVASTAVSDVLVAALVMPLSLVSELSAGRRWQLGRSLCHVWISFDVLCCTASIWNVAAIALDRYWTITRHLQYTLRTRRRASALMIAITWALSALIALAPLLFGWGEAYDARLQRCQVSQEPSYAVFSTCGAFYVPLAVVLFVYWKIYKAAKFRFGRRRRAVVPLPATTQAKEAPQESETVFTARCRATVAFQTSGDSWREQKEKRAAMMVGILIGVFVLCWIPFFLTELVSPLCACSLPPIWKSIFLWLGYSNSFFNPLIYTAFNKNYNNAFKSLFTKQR

Compound	Ki [1]	Ki [2]	Ki [5]	Ki [6]	Ki [7]	Ki [10]	Ki [12]	Ki [13]	Ki [14]	also measured
COc1cc(N)c(Cl)cc1C(=O)N[C@H]1CN2CCC1CC2 [4-Amino-N-(R)-1-aza-bicyclo[2.2.2]oct-3-yl-5-chloro-2-methoxy-benzamide]	251 nM and 200 nM	–	–	–	–	–	–	–	–	–
CN1C[C@H](C(=O)N[C@]2(C)O[C@@]3(O)[C@@H]4CCCN4C(=O)[C@H](Cc4ccccc4)N3C2=O)C=C2c3cccc4[nH]cc(c34)C[C@H]21 [12'-hydroxy-2'-methyl-5'alpha-(phenylmethyl)ergotaman-3',6',18-trione]	–	6.3 nM	575 nM and 537 nM	52.5 nM	50.1 nM	50.1 nM	–	–	–	Ki [3]: 15.8 nM; Ki [4]: 0.07 nM; Ki [8]: 1.94 nM; Ki [9]: 0.03 nM
NCCc1c[nH]c2ccc(O)cc12 [[3H]-5-HT]	–	–	–	67.6 nM	126 nM	5.01 nM	240 nM	–	–	Ki [11]: 39.8 nM; Ki [8]: 15.8 nM
O=C(c1ccc(F)cc1)C1CCN(CCn2c(=O)[nH]c3ccccc3c2=O)CC1 [3-(2-{4-[(4-fluorophenyl)carbonyl]piperidin-1-yl}ethyl)-1,2,3,4-tetrahydroquinazoline-2,4-dione]	–	–	–	–	–	–	–	204 nM	47.9 nM and 20.9 nM	Ki [15]: 3550 nM; Ki [16]: 1.25 nM
CN(C)CCCSc1ccccc1NC(=O)/C=C/c1ccccc1 [CINANSERIN]	–	–	–	–	–	–	–	–	–	Ki [17]: 6.02 nM
NCCc1c[nH]c2ccc(C(N)=O)cc12 [[3H]-5-carboxamidotryptamine]	> 10000 nM	15.8 nM and 12.6 nM	7080 nM and 3310 nM	2450 nM	3160 nM	1 nM	12.6 nM	–	–	Ki [4]: 0.37 nM; Ki [15]: 151 nM; Ki [11]: 10 nM
CC[C@@H](CO)NC(=O)[C@@H]1C=C2c3cccc4c3c(cn4C)C[C@H]2N(C)C1	–	79.4 nM	324 nM and 219 nM	13.5 nM	6.3 nM	12.6 nM	195 nM	12.6 nM	–	Ki [3]: 1000 nM; Ki [18]: > 10000 nM; Ki [9]: 1820 nM and 437 nM
c1ccc2nc(N3CCNCC3)ccc2c1 [2-Piperazin-1-yl-quinoline (Quipazine)]	–	–	–	–	–	–	–	6610 nM	257 nM	–
Clc1cncc(N2CCNCC2)n1 [L-630,571]	–	–	–	–	–	–	–	–	339 nM	–
CC(C)n1c(=O)n(C(=O)NC2CC3CCC(C2)N3C)c2ccccc21 (stereo not given) [BIMU 8]	25.1 nM and 12.6 nM	–	–	–	–	–	–	–	–	–
